The test system of assay [1] is satellite-like cells (Pax7-positive cells) in hMP. Put plainly: Myotube assay: Pax7-positive (satellite-like) cell quantification. The conditions noted are these: myotube assay, compounds incubated 3 days. Set-up: key to Pax7% (pool of Pax7-positive cells) / Pax7: −: Depletes the pool of cells, while positively affects the myotubes; +: Maintains or increases the pool of cells, with at least 1 of the highest concentration known to be cytotoxic; ++: Maintains or increases the pool of cells, without any toxicity. It counts as cell-based, human. An excerpt: (§1) The efficacy of said compound for use in treating, ameliorating, delaying, curing and/or preventing a disease or condition associated with muscle cells and/or satellite cells is positively correlated with the generation of myotubes (i.e. the increase of the area occupied by myotubes on the assay) and/or satellite cells (i.e. the increase of the number of satellite cells) in the assay after adding said compound. The generation of myotubes by the addition of said compound is expressed as the EC50 value, the concentration of said compound that corresponds with the half-maximal generation of myotubes, and the MA (normalized myotube area) value, the normalized area occupied by generated myotubes on the assay. […] Since muscle cells are formed from myotubes during myogenesis, the generation of myotubes in the assay is a good indicator of the ability of said compound to induce the formation of functional muscle cells in vivo. The number of satellite cells is measured as the percentage of Pax7 positive cells, relative to the total number of cells in the assay, as shown in FIG. 3. The percentage of Pax7 is a good indicator of the ability of said compound to induce the formation of satellite cells which are able to play a role in muscle repair and regeneration in vivo.
(§2) DMD human induced pluripotent stem cells (hereafter “DMD hiPSC”), generated from the NORM-1 hiPSC WT cell line by gene editing, or WT human induced pluripotent stem cells (hereafter “WT hiPSC”), being NORM-1 hiPSC wt cell line, have been differentiated according to Chal et al. 2015, 2016, to produce muscle progenitors (hereafter “hMP”). The hMP population contains satellite-like cells (i.e Pax7-positive cells) and satellite cells' progenies (i.e. Myogenin-positive cells).
(§3) FIG. 1 provides an example of a Myotube assay workflow. At day 0, hMP are thawed and 3.1 million cells are plated into a T75-flask coated with hESC-qualified Matrigel™ (Corning) in SkGM proliferating medium (PromoCells), supplemented with 5 μM Y-27632 (Tocris Bioscience). On day 2, SkGM proliferating medium is refreshed. On day 4, hMP are harvested and transferred into a 384-well plate coated with collagen type I at a density of 3500 cells/well in a DMEM-based medium, containing 5% of knockout serum replacement (Gibco), 1% PenStrep (Gibco), 1% MEM NEAA (Gibco) and 0.1 mM 2-mercaptoethanol (Gibco) (hereafter “K5 medium”) and 5 μM Y-27632. Compounds to be tested are then added in the medium and incubated for 3 days at 37° C. On day 7, cells are fixed and immunostained. For example, myotubes (alpha-actinin staining) and satellite-like (Pax7 staining) cells can be analyzed for total myotube area per well or Pax7-positive cell quantification.
DMD hMP were put in the Myotube assay according to the workflow described in Example 2.1. In particular, compound (i) was added at concentrations ranging from 1.5 nM to 30 μM, starting from day 4. hMP were cultivated for three more days in presence of compound (i), then fixed and analyzed for percentage of Pax7-positive cells and nuclei number. Duplicates of each condition were averaged.
(−): Depletes the pool of cells, while positively affects the myotubes; (+): Maintains or increases the pool of cells, with at least 1 of the highest concentration known to be cytotoxic; and (++) Maintains or increases the pool of cells, without any toxicity.

The test system of assay [2] is muscle progenitors (hMP) from DMD hiPSC or WT hiPSC. Put plainly: Myotube assay: myogenic activity (total myotube area per well). The following applies: Homo sapiens, 72 h, myotube assay, compounds incubated 3 days; for EC50: 10 points dose-response 1.5 nM to 30 μM, read-out: EC50 (myogenic activity, half-maximal generation of myotubes); for Emax: read-out: MA (normalized Myotube Area, efficacy). It counts as cell-based, human. As for the experimental part: An in vitro assay for assessing the efficacy of compounds for use in treating, ameliorating, delaying, curing and/or preventing a disease or condition associated with muscle cells and/or satellite cells is described in example 78. Herein, the generation of myotubes and satellite cells after adding a compound to a myotube assay workflow is assessed. Said myotube assay workflow is derived from wild-type or DMD human induced pluripotent stem cells (WT hiPSC or DMD hiPSC). Before the addition of said compound, the assay comprises satellite-like cells, but no significant amount of myotubes.
as §1, §2, §3
DMD hMP were put in the Myotube assay according to the workflow described in Example 2.1. In particular, compound (i) was added at concentrations ranging from 1.5 nM to 30 μM, starting from day 4. hMP were cultivated for three more days in presence of compound (i), then fixed and analyzed for quantification of total myotube area per well. Duplicates of each condition were averaged.
Qualitative scale: ++++: EC50<500 nM; +++: 500 nM≤EC50<1000 nM; ++: 1000 nM≤EC50<5000 nM; +: EC50≥5000 nM; +++: MA≥75%; ++: 50%≤MA<75%; +: 25%≤MA<50%.

The structures appear in SMILES notation.

Regarding `CSc1cc(Oc2ccnc3[nH]c(=O)cnc23)ccc1NC(=O)Nc1cc(C(C)(C)C)nn1CCN(C)C` [(bg), 1-(3-(tert-butyl)-1-(2-(dimethylamino)ethyl)-1H-pyrazol-5-yl)-3-(2-(methylthio)-4-((3-oxo-3,4-dihydropyrido[2,3-b]pyrazin-8-yl)oxy)phenyl)urea], the “Pax7% (pool of Pax7-positive cells)” value in assay [1] is on record as “++”. Besides, in assay [2], the EC50 is no less than 5 µM and the Emax was no less than 75%.

For the compound `CSc1cc(Oc2ccnc3[nH]c(=O)cnc23)ccc1NC(=O)Nc1cc(C(C)(C)C)nn1CCCN1CCOCC1` [(bh), 1-(3-(tert-butyl)-1-(3-morpholinopropyl)-1H-pyrazol-5-yl)-3-(2-(methylthio)-4-((3-oxo-3,4-dihydropyrido[2,3-b]pyrazin-8-yl)oxy)phenyl)urea], the “Pax7% (pool of Pax7-positive cells)” value in assay [1] is given as “++”. Besides, in assay [2], the Emax was no less than 75%.

Consider `CSc1cc(Oc2ccnc(NC(=O)OC(C)(C)C)c2)ccc1NC(=O)Nc1cc(C(C)(C)C)nn1-c1ccccc1` [(bi), tert-butyl N-[4-{4-[(5-tert-butyl-2-phenyl-pyrazol-3-yl)carbamoylamino]-3-methylsulfanyl-phenoxy}-2-pyridyl]carbamate], for which the “Pax7% (pool of Pax7-positive cells)” value in assay [1] was “++”. Moreover, the Emax in assay [2] was no less than 75%.

In the case of `CSc1cc(Oc2ccnc(N)c2)ccc1NC(=O)Nc1cc(C(C)(C)C)nn1-c1ccccc1.Cl` [(bj), 1-(4-((2-aminopyridin-4-yl)oxy)-2-(methylthio)phenyl)-3-(3-(tert-butyl)-1-phenyl-1H-pyrazol-5-yl)urea hydrochloride], the “Pax7% (pool of Pax7-positive cells)” value in assay [1] is “++”. The Emax in assay [2] is no less than 75%.

`CC(C)c1cc(Oc2ccnc3[nH]c(=O)cnc23)ccc1NC(=O)Nc1cc(C(C)(C)C)nn1-c1ccccc1` [(bk), 1-(3-(tert-butyl)-1-phenyl-1H-pyrazol-5-yl)-3-(2-isopropyl-4-((3-oxo-3,4-dihydropyrido[2,3-b]pyrazin-8-yl)oxy)phenyl)urea]: the “Pax7% (pool of Pax7-positive cells)” value in assay [1] is “++”. In assay [2], the Emax is no less than 75%.

`CC(C)(C)c1cc(NC(=O)Nc2ccc(Oc3ccncc3)cc2)n(-c2ccccc2)n1` [(bl), 1-(3-(tert-butyl)-1-phenyl-1H-pyrazol-5-yl)-3-(4-(pyridin-4-yloxy)phenyl)urea]: the “Pax7% (pool of Pax7-positive cells)” value in assay [1] is reported as “+”. In addition, the Emax in assay [2] lay in the range of 50 to 75%.

Consider `CSc1cc(Oc2ccnc3[nH]c(=O)cnc23)ccc1NC(=O)Nc1cc(C(C)(C)C)nn1-c1ccc2ncccc2c1` [(bm), 1-(3-(tert-butyl)-1-(quinolin-6-yl)-1H-pyrazol-5-yl)-3-(2-(methylthio)-4-((3-oxo-3,4-dihydropyrido[2,3-b]pyrazin-8-yl)oxy)phenyl)urea], for which, in assay [1], the “Pax7% (pool of Pax7-positive cells)” value is recorded as “+”. Moreover, the Emax in assay [2] was no less than 75%.

With `CSc1cc(Oc2ccnc3[nH]c(=O)cnc23)ccc1NC(=O)Nc1cc(C(C)(C)C)nn1C1CCCCC1` [(bn), 1-(3-(tert-butyl)-1-cyclohexyl-1H-pyrazol-5-yl)-3-(2-(methylthio)-4-((3-oxo-3,4-dihydropyrido[2,3-b]pyrazin-8-yl)oxy)phenyl)urea], the “Pax7% (pool of Pax7-positive cells)” value in assay [1] was “++”. Besides, the Emax in assay [2] is 50 to 75%.

Turning to `CC(C)(C)c1cc(NC(=O)Nc2ccc(Oc3ccnc4[nH]c(=O)cnc34)c(F)c2F)n(-c2ccccc2)n1` [(bo), 1-(3-(tert-butyl)-1-phenyl-1H-pyrazol-5-yl)-3-(2,3-difluoro-4-((3-oxo-3,4-dihydropyrido[2,3-b]pyrazin-8-yl)oxy)phenyl)urea], in assay [1], the “Pax7% (pool of Pax7-positive cells)” value was “+”. For the same compound, the Emax in assay [2] is no less than 75%.

As for `CSc1cc(Oc2ccnc(NC(=O)CN(C)C(=O)OC(C)(C)C)c2)ccc1NC(=O)Nc1cc(C(C)(C)C)nn1-c1ccccc1` [(bp), tert-butyl (2-((4-(4-(3-(3-(tert-butyl)-1-phenyl-1H-pyrazol-5-yl)ureido)-3-(methylthio)phenoxy)pyridin-2-yl)amino)-2-oxoethyl)(methyl)carbamate], the “Pax7% (pool of Pax7-positive cells)” value in assay [1] is “+”. Also, the Emax in assay [2] was no less than 75%.

On to `CNCC(=O)Nc1cc(Oc2ccc(NC(=O)Nc3cc(C(C)(C)C)nn3-c3ccccc3)c(SC)c2)ccn1` [(bq), N-(4-(4-(3-(3-(tert-butyl)-1-phenyl-1H-pyrazol-5-yl)ureido)-3-(methylthio)phenoxy)pyridin-2-yl)-2-(methylamino)acetamide], for which the “Pax7% (pool of Pax7-positive cells)” value in assay [1] is “+”. For the same compound, in assay [2], the EC50 was less than 0.5 µM and the Emax is no less than 75%.

For the compound `CNC(=O)c1cc(Oc2ccc(NC(=O)Nc3cc(C(C)(C)C)nn3-c3ccccc3)c(SC)c2)ccn1` [(br), 4-(4-(3-(3-(tert-butyl)-1-phenyl-1H-pyrazol-5-yl)ureido)-3-(methylthio)phenoxy)-N-methylpicolinamide], in assay [1], the “Pax7% (pool of Pax7-positive cells)” value is given as “++”. Also, in assay [2], the Emax is no less than 75%.

`CSc1cc(Oc2ccnc3nccnc23)ccc1NC(=O)Nc1cc(C(C)(C)C)nn1-c1ccccc1` [(bs), 1-(3-(tert-butyl)-1-phenyl-1H-pyrazol-5-yl)-3-(2-(methylthio)-4-(pyrido[2,3-b]pyrazin-8-yloxy)phenyl)urea]: the “Pax7% (pool of Pax7-positive cells)” value in assay [1] is reported as “++”. For the same compound, the Emax in assay [2] is no less than 75%.

In the case of `CC(C)(C)c1cc(NC(=O)Nc2cc(F)c(Oc3ccnc4[nH]c(=O)cnc34)cc2F)n(-c2ccccc2)n1` [(bt), 1-(3-(tert-butyl)-1-phenyl-1H-pyrazol-5-yl)-3-(2,5-difluoro-4-((3-oxo-3,4-dihydropyrido[2,3-b]pyrazin-8-yl)oxy)phenyl)urea], in assay [1], the “Pax7% (pool of Pax7-positive cells)” value is recorded as “++”. The Emax in assay [2] was no less than 75%.

Turning to `CSc1cc(Oc2cccc3[nH]c(=O)cnc23)ccc1NC(=O)Nc1cc(C(C)(C)C)nn1-c1ccccc1` [(bu), 1-(3-(tert-butyl)-1-phenyl-1H-pyrazol-5-yl)-3-(2-(methylthio)-4-((2-oxo-1,2-dihydroquinoxalin-5-yl)oxy)phenyl)urea], in assay [1], the “Pax7% (pool of Pax7-positive cells)” value is reported as “++”. For the same compound, the Emax in assay [2] fell in the range of 25 to 50%.

`CSc1cc(Oc2ncnc3[nH]c(=O)cnc23)ccc1NC(=O)Nc1cc(C(C)(C)C)nn1-c1ccccc1` [(bv), 1-(3-(tert-butyl)-1-phenyl-1H-pyrazol-5-yl)-3-(2-(methylthio)-4-((7-oxo-7,8-dihydropteridin-4-yl)oxy)phenyl)urea]: the “Pax7% (pool of Pax7-positive cells)” value in assay [1] is reported as “++”. The Emax in assay [2] was no less than 75%.

For `CSc1cc(Oc2ccnc3[nH]c(=O)cnc23)ccc1NC(=O)Nc1cc(C(C)(C)C)nn1-c1cccc(F)c1` [(bw), 1-(3-(tert-butyl)-1-(3-fluorophenyl)-1H-pyrazol-5-yl)-3-(2-(methylthio)-4-((3-oxo-3,4-dihydropyrido[2,3-b]pyrazin-8-yl)oxy)phenyl)urea], the “Pax7% (pool of Pax7-positive cells)” value in assay [1] is recorded as “++”. The Emax in assay [2] was no less than 75%.

For the origin of these results see patent publication US20230089368A1, “POLYAROMATIC UREA DERIVATIVES AND THEIR USE IN THE TREATMENT OF MUSCLE DISEASES” (ANAGENESIS BIOTECHNOLOGIES S.A.S., priority 2019, published 2023).
